The test system of this assay is L1210 leukemia ip in BDF1 mice, survival T/C. Nature of the assay: NCI In Vivo Anticancer Drug Screen. Data for tumor model L1210 Leukemia (intraperitoneal) in B6D2F1 (BDF1) mice. As to conditions: endpoint: mean survival time, higher = longer survival. In outline:
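Survival endpoint. Drug-treated group vs vehicle group, expressed as T divided by C. Tumor passaged by transplantation.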

Where [1] appears, read: dose: 200.0 mg/kg/injection, schedule: Q01DX009 (ip), vehicle: other.
Where [2] appears, read: dose: 100.0 mg/kg/injection, schedule: Q01DX001 (ip), vehicle: saline.
Setting [3] is: dose: 200.0 mg/kg/injection, schedule: Q01DX001 (ip), vehicle: saline.
The mark [4] stands for this setting: dose: 50.0 mg/kg/injection, schedule: Q01DX009 (ip), vehicle: saline with Tween-80.
[5] abbreviates: dose: 50.0 mg/kg/injection, schedule: Q04DX003 (ip), vehicle: saline with Tween-80.
The mark [6] stands for this setting: dose: 100.0 mg/kg/injection, schedule: Q04DX003 (ip), vehicle: saline with Tween-80.
Setting [7] is: dose: 200.0 mg/kg/injection, schedule: Q04DX003 (ip), vehicle: saline with Tween-80.
Setting [8] is: dose: 400.0 mg/kg/injection, schedule: Q01DX001 (ip), vehicle: saline.

Where “and” joins values, the source holds several entries; their conditions need not be identical. Equal entries are not always repeated. Inconclusive results and toxic doses are left out.

Regarding `N#CCCN(CCC#N)/N=N\c1nc[nH]c1C(N)=O`, the T/C (dose: 50.0 mg/kg/injection, schedule: Q01DX001 (ip), vehicle: water) was 104 % of control; the T/C (dose: 50.0 mg/kg/injection, schedule: Q04DX003 (ip), vehicle: water) was 98 % of control; the T/C (dose: 100.0 mg/kg/injection, schedule: Q01DX001 (ip), vehicle: other) was 104 % of control; the T/C (dose: 100.0 mg/kg/injection, schedule: Q01DX001 (ip), vehicle: water) was 97 % of control; the T/C (dose: 100.0 mg/kg/injection, schedule: Q01DX009 (ip), vehicle: other) is 101 % of control; the T/C (dose: 100.0 mg/kg/injection, schedule: Q04DX003 (ip), vehicle: other) was 104 % of control. In addition, the T/C (dose: 100.0 mg/kg/injection, schedule: Q04DX003 (ip), vehicle: water) was 100 % of control; the T/C (dose: 200.0 mg/kg/injection, schedule: Q01DX001 (ip), vehicle: other) was 102 % of control; the T/C (dose: 200.0 mg/kg/injection, schedule: Q01DX001 (ip), vehicle: water) is 96 % of control; the T/C under setting [1] was 95 % of control; the T/C (dose: 200.0 mg/kg/injection, schedule: Q04DX003 (ip), vehicle: other) is 105 % of control; the T/C (dose: 200.0 mg/kg/injection, schedule: Q04DX003 (ip), vehicle: water) was 102 % of control. Besides, the T/C is, setting by setting: (dose: 400.0 mg/kg/injection, schedule: Q01DX001 (ip), vehicle: other) 102 % of control; (dose: 400.0 mg/kg/injection, schedule: Q01DX001 (ip), vehicle: water) 101 % of control; (dose: 400.0 mg/kg/injection, schedule: Q01DX009 (ip), vehicle: other) 93 % of control; (dose: 400.0 mg/kg/injection, schedule: Q04DX003 (ip), vehicle: other) 98 % of control; (dose: 400.0 mg/kg/injection, schedule: Q04DX003 (ip), vehicle: water) 97 % of control.
Turning to `NC(COC(c1ccccc1)(c1ccccc1)c1ccccc1)C(=O)O` (stereo not given), the T/C is 100 % of control (dose: 25.0 mg/kg/injection, schedule: Q01DX009 (ip), vehicle: other) and 98 % of control under setting [1].
Take `COc1ccc(C=Nc2cc([N+](=O)[O-])ccc2O)cc1`: the T/C is, setting by setting: (dose: 100.0 mg/kg/injection, schedule: Q01DX001 (ip), vehicle: carboxymethylcellulose (CMC)) 98 % of control; (dose: 200.0 mg/kg/injection, schedule: Q01DX001 (ip), vehicle: carboxymethylcellulose (CMC)) 98 % of control; (dose: 400.0 mg/kg/injection, schedule: Q01DX001 (ip), vehicle: carboxymethylcellulose (CMC)) 94 % of control.
With `CCc1occ(C(=O)N2Cc3cc4ccccc4nc3C2)c1C1SCCS1`, the T/C under setting [2] is 89 % of control and the T/C under setting [3] was 92 % of control.
On to `CCCCCCCCCCCCNC`, for which the T/C was 92 % of control (dose: 12.5 mg/kg/injection, schedule: Q01DX009 (ip), vehicle: saline with Tween-80); 93 % of control (dose: 25.0 mg/kg/injection, schedule: Q01DX009 (ip), vehicle: saline with Tween-80); 103 % of control (dose: 25.0 mg/kg/injection, schedule: Q04DX003 (ip), vehicle: saline with Tween-80); 91 % of control under setting [4]; 93 % of control under setting [5]; 93 % of control under setting [6].
Regarding `CC(C)COC(CN)C(Cl)(Cl)Cl` (stereo not given), the T/C is, setting by setting: (dose: 50.0 mg/kg/injection, schedule: Q01DX001 (ip), vehicle: saline with Tween-80) 104 % of control; under setting [4], 94 % of control and 110 % of control; under setting [5], 100 % of control; (dose: 100.0 mg/kg/injection, schedule: Q01DX001 (ip), vehicle: saline with Tween-80) 103 % of control; (dose: 100.0 mg/kg/injection, schedule: Q01DX009 (ip), vehicle: saline with Tween-80) 97 % of control and 92 % of control; (dose: 100.0 mg/kg/injection, schedule: Q04DX002 (ip), vehicle: saline with Tween-80) 103 % of control and 104 % of control. Also, the T/C was 95 % of control under setting [6]; 97 % of control (dose: 200.0 mg/kg/injection, schedule: Q01DX001 (ip), vehicle: saline with Tween-80); 93 % of control and 99 % of control (dose: 200.0 mg/kg/injection, schedule: Q01DX009 (ip), vehicle: saline with Tween-80); 95 % of control and 101 % of control (dose: 200.0 mg/kg/injection, schedule: Q04DX002 (ip), vehicle: saline with Tween-80); 92 % of control under setting [7].
For the compound `C/C(=C(/SS/C(C(=O)O)=C(/C)c1cccc(O)c1)C(=O)O)c1cccc(O)c1`, the T/C under setting [2] is 97 % of control, the T/C under setting [3] is 97 % of control and the T/C under setting [8] was 97 % of control.
Consider `O=C(NC(Cc1ccccc1)C(=O)N1CCOCC1)c1ccccc1` (stereo not given), for which the T/C under setting [2] is 91 % of control, the T/C under setting [3] is 98 % of control and the T/C under setting [8] was 89 % of control.
On to `CC1S(=O)(=O)CC(NC(=O)N(CCCl)N=O)CS1(=O)=O` (stereo not given), for which the T/C is 159 % of control (dose: 3.5 mg/kg/injection, schedule: Q01DX001 (ip), vehicle: saline with Tween-80); 172 % of control and 208 % of control (dose: 5.3 mg/kg/injection, schedule: Q01DX001 (ip), vehicle: saline with Tween-80); 278 % of control and 309 % of control (dose: 8.0 mg/kg/injection, schedule: Q01DX001 (ip), vehicle: saline with Tween-80); 357 % of control [middle of 4 runs] (dose: 12.0 mg/kg/injection, schedule: Q01DX001 (ip), vehicle: saline with Tween-80); 324 % of control and 421 % of control (dose: 18.0 mg/kg/injection, schedule: Q01DX001 (ip), vehicle: saline with Tween-80); 444 % of control and 458 % of control (dose: 26.0 mg/kg/injection, schedule: Q01DX001 (ip), vehicle: saline with Tween-80). Also, the T/C runs as follows: (dose: 40.0 mg/kg/injection, schedule: Q01DX001 (ip), vehicle: saline with Tween-80) 516 % of control and 442 % of control; (dose: 60.0 mg/kg/injection, schedule: Q01DX001 (ip), vehicle: saline with Tween-80) 421 % of control and 156 % of control; (dose: 90.0 mg/kg/injection, schedule: Q01DX001 (ip), vehicle: saline with Tween-80) 252 % of control and 258 % of control; (dose: 135.0 mg/kg/injection, schedule: Q01DX001 (ip), vehicle: saline with Tween-80) 116 % of control.
Regarding `CCOC(=O)C1CN(Cc2ccccc2)C(=O)C1=O` (stereo not given), the T/C (dose: 50.0 mg/kg/injection, schedule: Q01DX001 (ip), vehicle: saline) was 102 % of control; the T/C (dose: 75.0 mg/kg/injection, schedule: Q01DX009 (ip), vehicle: saline) is 101 % of control; the T/C under setting [2] is 102 % of control; the T/C (dose: 150.0 mg/kg/injection, schedule: Q01DX009 (ip), vehicle: saline) is 99 % of control; the T/C under setting [3] is 102 % of control; the T/C (dose: 300.0 mg/kg/injection, schedule: Q01DX009 (ip), vehicle: saline) was 99 % of control. Moreover, under setting [8], the T/C was 114 % of control.
Regarding `COc1ccc(OC)c2c(C(C)=O)c[nH]c12`, the T/C is, setting by setting: (dose: 12.5 mg/kg/injection, schedule: Q04DX002 (ip), vehicle: Klucel (hydroxypropylcellulose) (HPC)) 118 % of control; (dose: 25.0 mg/kg/injection, schedule: Q04DX002 (ip), vehicle: Klucel (hydroxypropylcellulose) (HPC)) 112 % of control; (dose: 50.0 mg/kg/injection, schedule: Q04DX002 (ip), vehicle: Klucel (hydroxypropylcellulose) (HPC)) 93 % of control.
Take `CC(C)(OC(=O)C(NC=O)C(C)(C)S)OC(=O)C(NC=O)C(C)(C)S` (stereo not given): the T/C under setting [6] is 98 % of control; the T/C under setting [7] is 95 % of control; the T/C (dose: 400.0 mg/kg/injection, schedule: Q04DX003 (ip), vehicle: saline with Tween-80) is 100 % of control.

The record behind these values is PubChem BioAssay AID248 (DTP/NCI, 2004).
